Reference: article PMC8524858, “Dual inhibition of αvβ6 and αvβ1 reduces fibrogenesis in lung tissue explants from patients with IPF” (Respiratory Research, 2021)

Test system: bleomycin-challenged C57BL/6 mice
Assay: In vivo bleomycin mouse model of pulmonary fibrosis
Settings: Day 7 to Day 21 after bleomycin
Protocol: C57BL/6 mice (Charles River; Hollister, CA, USA) were administered 3 units/kg bleomycin (Teva; Toronto, ON, Canada) or vehicle (water) via oropharyngeal aspiration. Lung tissue and bronchioalveolar lavage (BAL) cells were collected after 14 or 21 days to evaluate Smad phosphorylation and collagen deposition.
OHP levels and fractional synthesis rates were determined similar to that previously described.
Formalin-fixed, paraffin-embedded mouse lung tissue sections underwent SHG imaging to characterize the quantity and quality of fibrillar collagen deposition using methods similar to that previously described.
For pSmad3 and total Smad3 quantitation, lung tissues or bronchoalveolar lavage (BAL) cells were lysed in RIPA buffer with protease inhibitor cocktail (Thermo Fisher; #78442). Total protein concentration was normalized across lysates following quantitation by bicinchoninic acid protein assay (Thermo Fisher; #23225). MSD GOLD 96 Small Spot Streptavidin plates were rinsed with PBST, followed by incubation with 1 µg/ml of biotinylated anti-Smad2/3 antibody under agitation for 1 h. Following a second rinse, a 50:50 mix of unknown sample and PBST was added to duplicate wells. Following a 1 h incubation and another rinse, 1 µg/ml of sulfo-tag-labeled anti-pSmad3 or anti-Smad3 antibody was added and incubated for 1 h under agitation. After a final rinse, 1x read buffer was added and the plate was read using an MSD sector imager instrument (SECTOR S 600). pSmad3/Smad3 signal ratios were compared across time points to calculate fold changes.
Male, 8-week-old C57BL/6 mice (Charles River; Hollister, CA, USA) were administered 3 U/kg bleomycin (Teva) or vehicle (water) via oropharyngeal aspiration while under anesthesia (ketamine/xylazine). […] Total lung weights were recorded, and right lobes were snap-frozen and stored at -80 °C. […]
OHP levels in mouse lung tissue were determined similar to that previously described (E15) using the QuickZyme hydroxyproline assay kit (QuickZyme Biosciences; Leiden, Netherlands). […] Hydrolysate was adjusted to 4 M HCl and analyzed for OHP concentrations in a 96-well format, according to manufacturer’s instruction. Absorbance was read at 570 nm with an Infinite M200 PRO microtiter plate reader (Tecan; Crailsheim, Germany) and total lung OHP levels calculated from OHP concentrations (µg OHP/mg tissue) by normalizing to total lung weight. […]
Formalin-fixed paraffin embedded sections prepared from mouse lung tissue underwent SHG imaging to characterize both the quantity and quality of fibrillar collagen deposition using methods similar to that previously described (E16). […]

COCCN(CCCCc1ccc2c(n1)NCCC2)CC[C@H](Nc1ncnc2ccccc12)C(=O)O [PLN-74809]
Smad3 phosphorylation in lung tissue (oral 100, 250, 500 mg/kg BID): dose-dependently blocked | interstitial fibrillar collagen deposition (SHG imaging) (oral 100, 250, 500 mg/kg BID, vs vehicle): dose-dependent, significant reduction | total pulmonary hydroxyproline levels (oral 100-500 mg/kg BID, vs vehicle (Fig. S3A)): dose-dependently reduced | hydroxyproline deposition rate (2H incorporation) (oral 100-500 mg/kg BID, vs vehicle (Fig. S3B)): dose-dependently reduced
